In ChEMBL document CHEMBL4033705, “Screening for bioactive natural products from a 67-compound library of Glycyrrhiza inflata” (Bioorg Med Chem, 2017):
Where a SMILES comes first, the peptide text is derived from it. The star is where a group is joined. Cbz = O=C(OCc1ccccc1)*

Experiments:
RAW264.7 [1] = assay: Antiinflammatory activity in mouse RAW264.7 cells assessed as inhibition of LPS-induced NO production at 20 uM after 24 hrs by Griess reagent based assay relative to control; assay type: functional; details: RAW264.7, 24 h
[2] = (§1) Growth inhibition of human HEK293T cells at 10 uM after 24 hrs by MTS assay relative to control; assay type: cell-based, HEK-293T; details: HEK293T cells, read-out: GI
HEK-293T = assay: as §1; assay type: cell-based; details: hek-293t, 24 h, 10 µM
[3] = (§2) Growth inhibition of human LO2 cells at 10 uM after 24 hrs by MTS assay relative to control; assay type: cell-based, L02; details: LO2 cells, read-out: GI
L02 = assay: as §2; assay type: cell-based; details: l02, 24 h, 10 µM
MCF7 [4] = assay: Cytotoxicity against human MCF7 cells assessed as reduction in cell viability after 24 hrs by MTS assay; assay type: functional, cell-based; details: MCF7, 24 h
SW480 [5] = assay: Cytotoxicity against human SW480 cells assessed as reduction in cell viability after 24 hrs by MTS assay; assay type: functional, cell-based; details: SW480, 24 h
HepG2 [6] = assay: Cytotoxicity against human HepG2 cells assessed as reduction in cell viability after 24 hrs by MTS assay; assay type: functional, cell-based; details: HepG2, 24 h
MCF7 [7] = assay: Growth inhibition of human MCF7 cells at 10 uM after 24 hrs by MTS assay relative to control; assay type: functional; details: MCF7, 24 h, read-out: GI
SW480 [8] = assay: Growth inhibition of human SW480 cells at 10 uM after 24 hrs by MTS assay relative to control; assay type: functional; details: SW480, 24 h, read-out: GI
HepG2 [9] = assay: Growth inhibition of human HepG2 cells at 10 uM after 24 hrs by MTS assay relative to control; assay type: functional; details: HepG2, 24 h, read-out: GI
RAW264.7 [10] = assay: Antiinflammatory activity in mouse RAW264.7 cells assessed as inhibition of LPS-induced NO production at 10 uM after 24 hrs by Griess reagent based assay relative to control; assay type: functional; details: RAW264.7, 24 h
Homo sapiens [11] = species on record: Homo sapiens; assay: Inhibition of LPS-induced NF-kappaB transcription (unknown origin) expressed in human SW480 cells at 10 uM by luciferase reporter gene assay; assay type: cell-based
[12] = target: T1, Tyrosine-protein phosphatase non-receptor type 1 (Homo sapiens) (UniProt P18031); assay: Inhibition of recombinant human PTP1B using p-nitrophenyl phosphate as substrate at 10 uM after 30 mins relative to control
T1 sequence (whole entry): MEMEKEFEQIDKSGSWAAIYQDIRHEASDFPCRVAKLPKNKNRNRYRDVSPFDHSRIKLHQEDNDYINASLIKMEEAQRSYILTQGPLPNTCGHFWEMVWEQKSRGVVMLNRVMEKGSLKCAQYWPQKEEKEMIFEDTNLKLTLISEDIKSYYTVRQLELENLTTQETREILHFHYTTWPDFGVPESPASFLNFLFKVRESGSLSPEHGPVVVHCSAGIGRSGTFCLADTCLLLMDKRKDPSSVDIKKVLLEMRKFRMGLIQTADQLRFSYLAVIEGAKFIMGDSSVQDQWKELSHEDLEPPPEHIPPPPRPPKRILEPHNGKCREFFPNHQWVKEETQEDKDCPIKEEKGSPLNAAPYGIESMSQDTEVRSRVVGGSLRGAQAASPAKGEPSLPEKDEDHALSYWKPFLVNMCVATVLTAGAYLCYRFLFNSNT

[13] = target: T2, Tyrosine-protein phosphatase non-receptor type 1 (Homo sapiens, UniProt P18031); assay: Inhibition of recombinant human PTP1B using p-nitrophenyl phosphate as substrate after 30 mins
T2 sequence (P18031 whole entry): T1 sequence (whole entry)

[14] = target: Mushroom tyrosinase (Agaricus bisporus) (UniProt O42713+Q00024+C7FF04+C7FF05); assay: Inhibition of mushroom tyrosinase at 10 uM using L-tyrosine as substrate incubated for 15 mins followed by substrate addition relative to control
Homo sapiens [15] = species on record: Homo sapiens; assay: Inhibition of LPS-induced NF-kappaB transcription (unknown origin) expressed in human SW480 cells at 20 uM by luciferase reporter gene assay; assay type: cell-based

Structure (SMILES): COc1cc(/C=C/C(=O)CC(=O)/C=C/c2ccc(O)c(OC)c2)ccc1O [CURCUMIN]
- inhibition at 20 µM (RAW264.7 [1]): 70%

Structure (SMILES): CC(C)=CCc1c(O)cc2occ(-c3cc(O)c4c(c3)C=CC(C)(C)O4)c(=O)c2c1O
- inhibition at 24 h, 10 µM [2]: 11%
- Activity (HEK-293T): Non-Toxic
- inhibition at 24 h, 10 µM [3]: 5%
- Activity (L02): Non-Toxic
- IC50 (MCF7 [4]): 7.27 µM
- IC50 (SW480 [5]): 7.87 µM
- IC50 (HepG2 [6]): 3.54 µM
- inhibition of growth at 10 µM (MCF7 [7]): 92%
- inhibition of growth at 10 µM (SW480 [8]): 82%
- inhibition of growth at 10 µM (HepG2 [9]): 89%
- inhibition at 10 µM (RAW264.7 [10]): 0%
- inhibition (Homo sapiens [11]): 14%
- inhibition [12]: 92%
- IC50 [13]: 1.48 µM
- inhibition [14]: 1%

Structure (SMILES): CC(C)C[C@@H](C=O)NC(=O)[C@H](CC(C)C)NC(=O)[C@H](CC(C)C)NC(=O)OCc1ccccc1 (Cbz-Leu-Leu-Leu-aldehyde)
- inhibition (Homo sapiens [15]): 70%
